The results in this text go back to US20180353462A1, “[…] AGENTS […] FLAVONOID DERIVATIVES TARGETING KINASES, SIRTUINS AND ONCOGENIC AGENTS FOR THE TREATMENT OF CANCERS” (priority 2015, published 2018).

In one experiment the target is T1, CK2a2 (Homo sapiens, UniProt P19784).
T1 construct: made in house
The experiment in a line: Kinase competition binding assay, CK2a2. Particulars: Table 1 kinase panel. As to the method:
(§1) Cannabis flavonoids and their analogs were subjected to kinase inhibition assay. The compounds were first screened at a single concentration of 10 μM in the primary assay. […]. To determine the kd or IC50 values, competition binding assays were established, authenticated and executed as described previously. Fabian et al., “A Small Molecule-Kinase Interaction Map For Clinical Kinase Inhibitors.”, Nat Biotechnol, 23(3):329-36, Epub (2005). See also, Karaman et al., “A Quantitative Analysis Of Kinase Inhibitor Selectivity”, Nat. Biotechnol. […] For most assays, kinases were fused to T7 phage strains (Fabian, supra) and for the other assays, kinases were produced in HEK-293 cells after which they were tagged with DNA for quantitative PCR detection. In general, full-length constructs were used for small, single domain kinases, and catalytic domain constructs for large multi-domain kinases. The binding assays utilized streptavidin-coated magnetic beads treated with biotinylated small molecule ligands for 30 minutes at room temperature which generated affinity resins for the kinase assays. The liganded beads were blocked with excess biotin and washed with blocking buffer (SeaBlock (Pierce), 1% BSA, 0.05% Tween 20, 1 mM DTT) to remove unbound ligand and to reduce non-specific phage binding. […] Test compounds were prepared as 40× stocks in 100% DMSO and diluted directly into the assay (Final DMSO concentration=2.5%). All reactions were performed in polypropylene 384-well plates in a final volume of 0.04 ml. […] The beads were then re-suspended in elution buffer (1×PBS, 0.05% Tween 20, 0.5 μM non-biotinylated affinity ligand) and incubated at room temperature with shaking for 30 minutes. The kinase concentration in the eluates was measured by quantitative PCR. An illustration of the kinase interaction process is presented below. Kd/IC50 values were determined using a standard dose response curve using the hill equation. Curves were fitted using a non-linear least square fit with the Levenberg-Marquardt algorithm.
(§2) The compound(s) were screened at 10 μM and results for primary screen binding interactions are reported as ‘% Ctrl’, where lower numbers indicate stronger hits in the matrix.

The target in another experiment is T2, MEK5 (Homo sapiens, UniProt Q13163).
T2 construct: made in house
T2 sequence (Q13163 1-448): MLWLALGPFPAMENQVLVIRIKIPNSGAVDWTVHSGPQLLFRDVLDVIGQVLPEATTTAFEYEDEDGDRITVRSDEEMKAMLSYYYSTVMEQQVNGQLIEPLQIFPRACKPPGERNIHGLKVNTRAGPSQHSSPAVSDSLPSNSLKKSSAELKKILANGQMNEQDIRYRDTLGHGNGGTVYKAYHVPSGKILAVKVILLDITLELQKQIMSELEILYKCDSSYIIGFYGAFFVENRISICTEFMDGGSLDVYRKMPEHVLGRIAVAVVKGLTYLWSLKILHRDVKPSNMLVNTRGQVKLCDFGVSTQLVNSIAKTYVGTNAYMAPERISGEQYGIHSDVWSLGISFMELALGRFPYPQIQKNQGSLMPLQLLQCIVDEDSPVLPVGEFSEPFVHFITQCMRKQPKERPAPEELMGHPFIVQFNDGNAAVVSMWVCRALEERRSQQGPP
The experiment in a line: Kinase competition binding assay, MEK5. To be noted: Table 1 kinase panel. As to the method: as §1, §2

In another experiment the target is T3, PIP5K1A (Homo sapiens, UniProt Q99755).
T3 construct: T7 phage fusion (most assays) or DNA tag for qPCR (HEK-293-made kinases); made in house
The experiment is described as follows: Kinase competition binding assay, PIP5K1A. To be noted: Table 1 kinase panel. As to the method:
as §1, §2

Another experiment deals with CFPAC-1 (Pancreatic). The experiment is described as follows: WST-1 anticancer cell proliferation assay, CFPAC-1. In kind it is cell-based, human. Particulars: 72 hours. The protocol:
(§3) Bioactivity of the above-described compounds has been verified by an anticancer cell proliferation assay using the WST-1 (4-[3-(4-iodophenyl)-2-(4-nitrophenyl)-2H-5-tetrazolio]-1, 3-benzene disulfonate) colorimetric assay by Roche Life Sciences®. Anticancer activity was tested against several standard cancer cell lines including brain, breast, Kaposi sarcoma, leukemia, lung, melanoma, tenosynovial giant cell tumor, ovarian, pancreatic, colon and prostate cancer. Cells were trypsinized and plated into 96 well plates in 50 μl of media and incubated overnight. The next day approximately 18 hours after plating, 50 μl of media containing the required flavonoid-based pharmaceutical composition was added per well. Cells were plated at a density so that 72 hours post drug addition, the cells will be in log phase (500)-2000 cells/well). The compounds and extracts were solubilized in Dimethyl sulfoxide (DMSO). The cells are allowed to proliferate for 72 hours 37° C. in humidified atmosphere of 5% CO2. The experiment is terminated using WST-1 (Roche®) 10 μl per well and absorbance is read at 450 nm %690 nm. The effect of drugs on growth is assessed as percent of cell viability. The IC50 values were determined from the extract dose versus control growth curves using Graphpad Prism® software. All experiments were carried out in duplicate and the mean results determined.

The target of the next experiment is T4, PDGFRa(T674I) (Homo sapiens, UniProt P16234, T674I).
T4 construct: catalytic domain constructs for large multi-domain kinases; T7 phage fusion (most assays) or DNA tag for qPCR (HEK-293-made kinases); made in house
The experiment is described as follows: Kinase competition binding assay, PDGFRa(T674I). Particulars: Table 1 kinase panel. The protocol:
as §1, §2

Experiment [1] has as its system MOLM-14 acute myeloid leukemia cell line. The experiment in a line: WST-1 anticancer cell proliferation assay, MOLM-14. It is filed as cell-based. To be noted: Table 4; read-out: Acute Myeloid Leukemia cell lines MOLM-14 IC50. The protocol: as §3, with “Anticancer” for “Bioactivity of the above-described compounds has been verified by an anticancer cell proliferation assay using the WST-1 (4-[3-(4-iodophenyl)-2-(4-nitrophenyl)-2H-5-tetrazolio]-1, 3-benzene disulfonate) colorimetric assay by Roche Life Sciences®. Anticancer”

Another experiment concerns Normal Bone marrow. The experiment is described as follows: Cell viability, normal bone marrow. It is filed as cell-based. Particulars: Table 4. As to the method: as §3

Consider `COc1cc(-c2cc(=O)c3c(O)c(C/C=C(\C)CCC=C(C)C)c(O)cc3o2)ccc1O` [FBL-03A], for which the IC50 on CK2a2 was 350 nM; on MEK5, 140 nM; at PIP5K1A, above 20000 nM; with CFPAC-1 (Pancreatic), 12 µM.
For `COc1cc(-c2cc(=O)c3c(O)c(CC=C(C)C)c(O)cc3o2)ccc1O` [FBL-03B], the IC50 on CK2a2 is 477 nM; on MEK5, above 1000 nM; at PDGFRa(T674I) it was 0.92 nM; on PIP5K1A, above 10000 nM; in the experiment on CFPAC-1 (Pancreatic), 17 µM.
With `COc1cc(-c2cc(=O)c3c(O)cc(O)c(C/C=C(\C)CCC=C(C)C)c3o2)ccc1O` [FBL-03C], the IC50 at CK2a2 was 19 nM; at MEK5, 84 nM; on PDGFRa(T674I), above 1000 nM; on PIP5K1A, 360 nM; in the experiment on CFPAC-1 (Pancreatic), 12 µM.
For `COc1ccc(-c2cc(=O)c3c(O)c(C/C=C(\C)CCC=C(C)C)c(O)cc3o2)cc1OC` [FBL-03D], the IC50 on CK2a2, on MEK5, on PDGFRa(T674I) and on PIP5K1A was above 30000 nM in each case.
For the compound `COc1cc(-c2cc(=O)c3c(O)cc(O)c(CC=C(C)C)c3o2)ccc1O` [FBL-03G], the IC50 on CK2a2 is 9.7 nM; on MEK5 it was above 1000 nM; at PDGFRa(T674I), 2360 nM; at PIP5K1A, above 20000 nM; in the experiment on CFPAC-1 (Pancreatic), 14.3 µM.
Turning to `COc1ccc(C2CC(=O)c3c(O)cc(O)cc3O2)cc1O` (stereo not drawn) [FBLGS-74], the IC50 (in experiment [1]; in the experiment with Normal Bone marrow) was above 100 µM each time.
Regarding `O=c1cc(-c2ccccc2)oc2cc(O)cc(O)c12` [FBLGS-75], the IC50 in experiment [1] was 4.57 µM; in the experiment with Normal Bone marrow, above 100 µM.
Regarding `Cc1cc2oc(-c3cccc(N)c3)cc(=O)c2c([N+](=O)[O-])c1C` [FBLGS-76], the IC50 in experiment [1] is 2.3 µM; with Normal Bone marrow it was above 100 µM.
The matching figures for `O=c1cc(-c2ccc(O)c(O)c2)oc2cc(O)cc(O)c12` [FBLGS-77]: 7.34 µM and above 100 µM.
In the case of `COc1cc(O)c2c(=O)c(O)c(-c3ccc(O)c(O)c3)oc2c1` [FBLGS-78], the IC50 is 5.73 µM in experiment [1] and above 100 µM in the experiment with Normal Bone marrow.
For `COc1cc(O)c2c(=O)c(O)c(-c3ccc(O)c(O)c3)oc2c1` [FBLGS-79] the same measures were 4.84 µM and above 100 µM.
For `COc1cc(O)c2c(=O)c(O)c(-c3ccc(O)c(OC)c3)oc2c1` [FBLGS-80] the same measures were 6.12 µM and above 100 µM.
Consider `COc1cc(-c2oc3cc(O)ccc3c(=O)c2O)ccc1O` [FBLGS-81], for which the IC50 was 0.7 µM in experiment [1] and above 100 µM with Normal Bone marrow.
`O=C1CC(c2ccc(O)c(O)c2)Oc2cc(O)cc(O)c21` (stereo not drawn) [FBLGS-82]: the IC50 in experiment [1] is above 10 µM; in the experiment with Normal Bone marrow, above 100 µM.
Regarding `O=c1c(O)c(-c2ccc(O)c(O)c2)oc2cc(O)ccc12` [FBLGS-83], the IC50 in experiment [1] turned out to be 2.35 µM.
As for `O=c1c(O)c(-c2ccc(O)c(O)c2)oc2cc(O)cc(O)c12` [FBLGS-84], the IC50 was 7.42 µM in experiment [1] and above 100 µM in the experiment with Normal Bone marrow.
With `COc1cc(-c2cc(=O)c3c(O)c(OC)c(OC)cc3o2)ccc1O` [FBLGS-85], the figures for the IC50 (in experiment [1]; in the experiment with Normal Bone marrow) were 1.5 µM and above 100 µM, respectively.
As to `COc1cc(-c2cc(=O)c3c(O)c(OC)c(O)cc3o2)ccc1O` [FBLGS-86], the IC50 in experiment [1] was 3.1 µM; in the experiment with Normal Bone marrow it was above 100 µM.
